One may read the IC50 as the concentration needed to halve the response being measured. The low end stands for greater potency, the high end for weaker potency.

This assay concerns the target T1, AbDHDPS (Acinetobacter baumannii, UniProt D0CFC3).
T1 sequence (D0CFC3 1-297): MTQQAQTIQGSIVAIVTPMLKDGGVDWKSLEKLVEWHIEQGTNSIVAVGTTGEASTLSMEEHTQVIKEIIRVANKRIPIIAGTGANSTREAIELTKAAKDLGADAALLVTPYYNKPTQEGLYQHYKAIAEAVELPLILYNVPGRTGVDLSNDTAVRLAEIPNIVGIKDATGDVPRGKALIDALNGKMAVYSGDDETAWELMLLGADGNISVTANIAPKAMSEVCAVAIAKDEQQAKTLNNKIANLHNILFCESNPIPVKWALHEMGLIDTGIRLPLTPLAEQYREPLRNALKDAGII
Kind of assay: DHDPS-DHDPR coupled assay, NADPH oxidation at […] nm. The assay is classed as biochemical.

Turning to `CS(=O)(=O)NNc1ccccc1` [N’-phenylmethanesulfonohydrazide], the midpoint of inhibition, the IC50, lay at 35 µM.

The record behind these values is doi:10.1101/2022.02.10.480023v1 (biorxiv, 2022).
